Reference: patent US6451732B1, “Herbicidal compositions of glyphosate trimesium” (Syngenta, Limited, priority 1999, dated 2002)
Where two headings read alike, the source gives them in different places.

Experiments:
[1] = test system: glyphosate tolerant soybeans; conditions: postemergence
Protocol: (§2) The soil was fortified with fertilizer (10-10-10) prior to seeding The compounds were dissolved in water and applied with a carrier volume of 200 L/ha. All treatments were replicated four times.
(§3) The pots were placed in a greenhouse and maintained under good growing conditions. The greenhouse evironmental systems provided the plants with natural and artificial lighting to attaim 12 hours of light per day. Day and night temperatures were maintained at 29° and 21° C. respectively.
(§4) Plants were grown to the V2 or 2 leaf stage prior to compound application. Plants were sprayed 30.5cm (12 inches) above the foliage with the spray solution as prepared for the pre-emergence test. Treated plants were then returned to a greenhouse and watered daily without wetting the foliage. Injury to plants was evaluated 5 days after treatment (“CDAT”) and 13 DAT. Injury was evaluated as percent control being the total injury to the plants due to all factors including: inhibited emergence, stunting, malformation, albinism, chlorosis, and other types of plant injury.

[2] = test system: glyphosate tolerant corn; conditions: postemergence
Protocol: as §2, §3, §4

[3] = test system: glyphosate tolerant soybeans; experiment: Greenhouse postemergence injury to glyphosate tolerant soybeans, glyphosate trimesium and bentazon (Example 2)
Protocol: as §2, §3, §4

[4] = test system: Abutilon theophrasti (ABUTH); experiment: Field plot injury rating (Example 3); assay type: in vivo; conditions: Glyphosate TMS 1.5 lb/acre, with ammonium sulfate
Text: (§1) In plots located in Champaign, Ill. (three replications), seeds of the following weed species were planted: Digitaria sanguinalis (“DIGSA”); Setaria faberi (“SETFA”); Setaria glauca (“SETLU”);Echinochloa crusgalli a crusgalli (“ECHCG”); Sorghum vulgare (“SORVU”); Sida spinosa (“SIDSP”); Ipomoea hederacea (“IPOHE”); Amaranthus retroflexus (“AMARE”); Xanthium strumarium (“XANST”); Helianthus annuns (“HELAN”) and Abutilon theophrasti (“ABUTH”). The plots were also planted with two varieties of glyphosate tolerant soybeans (“GLXMA P9294” and “GLXMA P9333”). When the soybeans had reached the 4-5 trifoliate stage, the plots were treated with glyphosate trimesium alone or glyphosate trimesium+bentazon, at the application rates indicated in Table 3. Injury to the species in each plot was tated 7 and 18 dats after application (DAA) of the glyphosate trimesium with or without bentazon and the results are shown in Table 3. The results shown in Table 3 are the mean of three replications.

[5] = test system: Amaranthus retroflexus (AMARE); experiment: Field plot injury rating (Example 3); assay type: in vivo; conditions: Glyphosate TMS 1.5 lb/acre, with ammonium sulfate
Text: as §1

[6] = test system: Digitaria sanguinalis (DIGSA); experiment: Field plot injury rating (Example 3); assay type: in vivo; conditions: Glyphosate TMS 1.5 lb/acre, with ammonium sulfate
Text: as §1

[7] = test system: Echinochloa crusgalli (ECHCG); experiment: Field plot injury rating (Example 3); assay type: in vivo; conditions: Glyphosate TMS 1.5 lb/acre, with ammonium sulfate
Text: as §1

[8] = test system: Helianthus annuns (HELAN); experiment: Field plot injury rating (Example 3); assay type: in vivo; conditions: Glyphosate TMS 1.5 lb/acre, with ammonium sulfate
Text: as §1

[9] = test system: Ipomoea hederacea (IPOHE); experiment: Field plot injury rating (Example 3); assay type: in vivo; conditions: Glyphosate TMS 1.5 lb/acre, with ammonium sulfate
Text: as §1

[10] = test system: Setaria faberi (SETFA); experiment: Field plot injury rating (Example 3); assay type: in vivo; conditions: Glyphosate TMS 1.5 lb/acre, with ammonium sulfate
Text: as §1

[11] = test system: Setaria glauca (SETLU); experiment: Field plot injury rating (Example 3); assay type: in vivo; conditions: Glyphosate TMS 1.5 lb/acre, with ammonium sulfate
Text: as §1

[12] = test system: Sida spinosa (SIDSP); experiment: Field plot injury rating (Example 3); assay type: in vivo; conditions: Glyphosate TMS 1.5 lb/acre, with ammonium sulfate
Text: as §1

[13] = test system: Sorghum vulgare (SORVU); experiment: Field plot injury rating (Example 3); assay type: in vivo; conditions: Glyphosate TMS 1.5 lb/acre, with ammonium sulfate
Text: as §1

[14] = test system: Xanthium strumarium (XANST); experiment: Field plot injury rating (Example 3); assay type: in vivo; conditions: Glyphosate TMS 1.5 lb/acre, with ammonium sulfate
Text: as §1

[15] = test system: GLXMA P9294; experiment: Field plot injury rating (Example 3); assay type: in vivo, glyphosate tolerant soybeans; conditions: Glyphosate TMS 1.5 lb/acre, with ammonium sulfate
Text: as §1

[16] = test system: GLXMA P9333; experiment: Field plot injury rating (Example 3); assay type: in vivo, glyphosate tolerant soybeans; conditions: Glyphosate TMS 1.5 lb/acre, with ammonium sulfate
Text: as §1

[17] = Glyphosate trimesium 750 g/ha, Bentazon 0 g/ha
[18] = Glyphosate trimesium 1500 g/ha, Bentazon 0 g/ha
[19] = Glyphosate trimesium 3000 g/ha, Bentazon 0 g/ha

SMILES: CC(C)N1C(=O)c2ccccc2NS1(=O)=O [Bentazon, bentazon]
- Soybean injury (percent control) 5 DAT ([1]; TMS 0 g/ha, Bentazon 250 g/ha): 2%
- Soybean injury (percent control) 5 DAT ([1]; TMS 0 g/ha, Bentazon 500 g/ha): 8%
- Corn injury (percent control) 5 DAT ([2]; TMS 0 g/ha, Bentazon 250 g/ha): 0%
- Corn injury (percent control) 13 DAT ([2]; TMS 0 g/ha, Bentazon 250 g/ha): 0%
- Corn injury (percent control) 5 DAT ([2]; TMS 0 g/ha, Bentazon 500 g/ha): 0%
- Corn injury (percent control) 13 DAT ([2]; TMS 0 g/ha, Bentazon 500 g/ha): 0%
- Soybean injury (percent control) 5 DAT ([3]; Glyphosate trimesium 0 g/ha, Bentazon 4 g/ha): 0%
- Soybean injury (percent control) 5 DAT ([3]; Glyphosate trimesium 0 g/ha, Bentazon 8 g/ha): 0%
- Soybean injury (percent control) 5 DAT ([3]; Glyphosate trimesium 0 g/ha, Bentazon 16 g/ha): 0%
- Soybean injury (percent control) 5 DAT ([3]; Glyphosate trimesium 0 g/ha, Bentazon 32 g/ha): 0%
- Soybean injury (percent control) 5 DAT ([3]; Glyphosate trimesium 0 g/ha, Bentazon 64 g/ha): 0%

SMILES: C[S+](C)C.O=C([O-])CNCP(=O)(O)O [Glyphosate trimesium, trimethylsulphonium salt of N-phosphonomethylglycine]
- Injury ABUTH 7 DAA ([4]; 7 DAA): 40
- Injury ABUTH 18 DAA ([4]; 18 DAA): 80
- Injury AMARE 7 DAA ([5]; 7 DAA): 100
- Injury AMARE 18 DAA ([5]; 18 DAA): 100
- Injury DIGSA 7 DAA ([6]; 7 DAA): 99
- Injury DIGSA 18 DAA ([6]; 18 DAA): 100
- Injury ECHCG 7 DAA ([7]; 7 DAA): 67
- Injury ECHCG 18 DAA ([7]; 18 DAA): 94
- Injury HELAN 7 DAA ([8]; 7 DAA): 99
- Injury HELAN 18 DAA ([8]; 18 DAA): 100
- Injury IPOHE 7 DAA ([9]; 7 DAA): 43
- Injury IPOHE 18 DAA ([9]; 18 DAA): 68
- Injury SETFA 7 DAA ([10]; 7 DAA): 96
- Injury SETFA 18 DAA ([10]; 18 DAA): 100
- Injury SETLU 7 DAA ([11]; 7 DAA): 95
- Injury SETLU 18 DAA ([11]; 18 DAA): 100
- Injury SIDSP 7 DAA ([12]; 7 DAA): 60
- Injury SIDSP 18 DAA ([12]; 18 DAA): 83
- Injury SORVU 7 DAA ([13]; 7 DAA): 93
- Injury SORVU 18 DAA ([13]; 18 DAA): 100
- Injury XANST 7 DAA ([14]; 7 DAA): 99
- Injury XANST 18 DAA ([14]; 18 DAA): 100
- Injury GLXMA P9294 7 DAA ([15]; 7 DAA): 8
- Injury GLXMA P9294 18 DAA ([15]; 18 DAA): 9
- Injury GLXMA P9333 7 DAA ([16]; 7 DAA): 5
- Injury GLXMA P9333 18 DAA ([16]; 18 DAA): 6
- Soybean injury (percent control) 5 DAT [3, 17]: 13%
- Soybean injury (percent control) 13 DAT [3, 17]: 7%
- Soybean injury (percent control) 5 DAT [3, 18]: 37%
- Soybean injury (percent control) 13 DAT [3, 18]: 27%
- Soybean injury (percent control) 5 DAT [3, 19]: 58%
- Soybean injury (percent control) 13 DAT [3, 19]: 35%

SMILES: C[S+](C)C.[Cl-] [TMS, trimethylsulphonium chloride]
- Soybean injury (percent control) 5 DAT ([1]; TMS 420 g/ha, Bentazon 0 g/ha): 15%
- Soybean injury (percent control) 13 DAT ([1]; TMS 420 g/ha, Bentazon 0 g/ha): 13%
- Soybean injury (percent control) 5 DAT ([1]; TMS 840 g/ha, Bentazon 0 g/ha): 24%
- Soybean injury (percent control) 13 DAT ([1]; TMS 840 g/ha, Bentazon 0 g/ha): 18%
- Corn injury (percent control) 5 DAT ([2]; TMS 420 g/ha, Bentazon 0 g/ha): 14%
- Corn injury (percent control) 13 DAT ([2]; TMS 420 g/ha, Bentazon 0 g/ha): 48%
- Corn injury (percent control) 5 DAT ([2]; TMS 840 g/ha, Bentazon 0 g/ha): 19%
- Corn injury (percent control) 13 DAT ([2]; TMS 840 g/ha, Bentazon 0 g/ha): 60%
